The text below walks through data of US20220056043A1, “NITROGEN-CONTAINING FUSED CYCLIC COMPOUND, PREPARATION METHOD THEREFOR AND USE THEREOF” (SICHUAN KELUN-BIOTECH BIOPHARMACEUTICAL CO., LTD., priority 2019, published 2022).

One assay has as its target T1, hNLRP3 inflammasome (Homo sapiens, UniProt Q96P20).
T1 construct: endogenous in cells; host or cells: THP-1 cells, PMA-differentiated
The assay can be described thus: Agonistic effect on the expression of IL-1β in THP-1 cells after PMA-induced differentiation (HTRF). In kind it is cell-based. The settings on record: IL-1β level, PMA-differentiated THP-1 cells, 6 hours. The source says: Experimental Example 1: Agonistic Effect of the Compound of the Invention on the Expression of IL-1β in THP-1 Cells after PMA-Induced Differentiation
In this test, a HTRF (homogeneous time-resolved fluorescence) detection method was used to test the effect of the compound of the invention on the level of downstream cytokine IL-1β of NLRP3 to evaluate the agonistic effect of the compound on hNLRP3 inflammasome or hNLRP3 inflammasome pathway at a cellular level.
Reagent: RPMI 1640 (Hyclone); heat-inactivated FBS (fetal bovine serum) (Gibco); PMA (phorbol myristal acetate) (Beyotime)
Kit: IL-1β assay kit (CISIO)
1) THP-1 cells in a logarithmic growth phase were seeded in a T75 culture flask at a density of 5×10^5 cells/well, and cultured in a cell incubator at 37° C., 5% CO2 for 24 hours, and then 1 μM PMA was used to induce THP-1 suspension cells to become adherent macrophages. The medium was RPMI 1640 containing 10% heat-inactivated FBS and 0.05 mM β-mercaptoethanol.
2) The cells were induced and cultured for 24 hours. Then the adherent cells were trypsinized and centrifuged at 1000 rpm for 5 min. The supernatant was removed, and the cells were resuspended to a density of 2×10^6 cells/mL in RPMI 1640 medium containing 2% heat-inactivated FBS. 50 μL/well of cell resuspension was taken and spread on a 96-well plate such that the number of cells in each well was 1×10^5.
3) An appropriate amount of 10 mM DMSO solution of the compound to be tested was taken and diluted to a concentration of 2× test concentration with RPMI 1640 medium containing 2% heat-inactivated FBS. 50 μL/well of the dilution was added to the cells in the 96-well plate, and mixed well. The plate was placed in a cell incubator at 37° C., 5% CO2 for 6 hours. The supernatant was collected, and the level of IL-1β was measured in accordance with the instructions of the IL-1β detection kit.
(§1) 4) EC50 was fitted by the GraphPad software log(agonist) vs. response—Variable slope four-parameter method.
For orientation: TR-FRET usually uses a lanthanide donor and a delayed reading to cut background.

The next assay has as its system THP1-defNLRP3 cells. Nature of the assay: Agonistic effect on the expression of IL-1β in NLRP3 deficient THP1 cells (THP1-defNLRP3) after PMA-induced differentiation (HTRF). In kind it is cell-based, human. The settings on record: Homo sapiens, THP-1; IL-1β level, PMA-differentiated NLRP3 deficient THP1 cells, 6 hours; highest test concentration 30 μM; read-out: hNLRP3 EC50 (μM) (THP-1defNLRP3).
Source text: Experimental Example 2: Agonistic Effect of the Compound of the Invention on the Expression of IL-1β in NLRP3 Deficient THP1 Cells (THP1-defNLRP3 Cells) after PMA-Induced Differentiation
In this test, a HTRF detection method was used to test the effect of the compound of the invention on the level of IL-1β in THP1-defNLRP3 cells to evaluate the specificity of the agonistic effect of the compound on hNLRP3 inflammasome or hNLRP3 inflammasome pathway.
Reagents: as described in Experimental Example 1
Cell: THP1-defNLRP3 (InvivoGen)
Kit: IL-1β assay kit (CISBIO)
1) THP1-defNLRP3 cells in a logarithmic growth phase were seeded in a T75 culture flask at a density of 5×10^5 cells/well, and cultured in a cell incubator at 37° C., 5% CO2 for 24 hours, and then 1 μM PMA was used to induce THP1-defNLRP3 suspension cells to become adherent macrophages. The medium was RPMI 1640 containing 10% heat-inactivated FBS and 0.05 mM β-mercaptoethanol.
2) The cells were induced and cultured for 24 hours. Then the adherent cells were trypsinized and centrifuged at 1000 rpm for 5 min. The supernatant was removed, and the cells were resuspended to a density of 2×10^6 cells/mL in RPMI 1640 medium containing 2% heat-inactivated FBS. 50 μL/well of the cell resuspension was taken and spread on a 96-well plate such that the number of cells in each well was 1×10^5.
3) An appropriate amount of 10 mM DMSO solution of the compound to be tested was taken and diluted to a concentration of 2× test concentration with RPMI 1640 medium containing 2% heat-inactivated FBS. 50 μL/well of the dilution was added to the cells in the 96-well plate, and mixed well. The plate was incubated in a cell incubator at 37° C., 5% CO2 for 6 hours. The supernatant was collected, and the level of IL-1β was measured in accordance with the instructions of the IL-1β detection kit.
as §1

T1 sequence (Q96P20 whole entry): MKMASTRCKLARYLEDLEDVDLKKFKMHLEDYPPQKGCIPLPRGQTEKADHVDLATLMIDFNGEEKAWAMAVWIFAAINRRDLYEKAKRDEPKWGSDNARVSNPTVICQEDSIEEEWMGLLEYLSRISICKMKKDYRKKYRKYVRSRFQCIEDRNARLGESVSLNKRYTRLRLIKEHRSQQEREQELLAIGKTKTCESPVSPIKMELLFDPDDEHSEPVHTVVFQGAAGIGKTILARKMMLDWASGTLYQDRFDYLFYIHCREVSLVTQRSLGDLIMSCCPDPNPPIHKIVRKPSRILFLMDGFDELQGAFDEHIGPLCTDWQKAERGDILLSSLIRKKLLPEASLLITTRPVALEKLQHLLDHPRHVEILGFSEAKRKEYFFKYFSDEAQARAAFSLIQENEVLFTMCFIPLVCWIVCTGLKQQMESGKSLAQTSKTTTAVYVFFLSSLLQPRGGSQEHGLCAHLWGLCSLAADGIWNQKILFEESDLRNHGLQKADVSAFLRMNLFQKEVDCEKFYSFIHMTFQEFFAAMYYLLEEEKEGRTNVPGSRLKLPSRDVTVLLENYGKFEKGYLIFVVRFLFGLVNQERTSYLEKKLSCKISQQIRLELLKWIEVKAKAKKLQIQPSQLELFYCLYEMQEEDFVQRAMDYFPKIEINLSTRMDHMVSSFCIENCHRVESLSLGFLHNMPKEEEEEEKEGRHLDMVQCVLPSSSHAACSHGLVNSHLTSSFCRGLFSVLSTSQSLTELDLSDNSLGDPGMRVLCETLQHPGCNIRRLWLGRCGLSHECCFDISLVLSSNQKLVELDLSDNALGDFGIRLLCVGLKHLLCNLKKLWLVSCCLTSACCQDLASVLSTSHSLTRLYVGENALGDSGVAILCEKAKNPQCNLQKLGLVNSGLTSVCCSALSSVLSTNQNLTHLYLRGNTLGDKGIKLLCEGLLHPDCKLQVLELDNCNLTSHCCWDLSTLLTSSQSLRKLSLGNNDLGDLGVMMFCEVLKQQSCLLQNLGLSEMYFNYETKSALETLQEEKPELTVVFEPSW

Consider `Nc1cc(N[C@H]2CC[C@H](O)C2)c2sc(-c3ccn[nH]3)cc2n1` [Compound 26, (1S,3S)-3-((5-amino-2-(1H-pyrazol-5-yl)thieno[3,2-b]pyridin-7-yl)amino)cyclopentanol], for which the EC50 (usually the concentration giving half of the maximal effect) on hNLRP3 inflammasome is 0.1 µM; in the assay on THP1-defNLRP3 cells it was over 30 µM.
In the case of `Cc1c(-c2ccn[nH]2)sc2c(NC[C@@H]3CCCO3)cc(N)nc12` [Compound 157], the EC50 on hNLRP3 inflammasome is 3.47 µM; in the assay with THP1-defNLRP3 cells it was over 30 µM.
On the same counts, the results for `Nc1cc(N2CCN(c3ccccc3)CC2)c2sc(-c3ccn[nH]3)cc2n1` [Compound 174] are 0.34 µM and over 30 µM.
Turning to `CC[C@H](CO)Nc1cc(N)nc2cc(-c3ccn[nH]3)sc12` [Compound 95, (R)-2-((5-amino-2-(1H-pyrazol-5-yl)thieno[3,2-b]pyridin-7-yl)amino)butanol], the concentration for a half-maximal effect (EC50) was 0.09 µM on hNLRP3 inflammasome and over 30 µM in the assay on THP1-defNLRP3 cells.
Regarding `Nc1cc(N[C@H]2C[C@H]2CO)c2sc(-c3ccn[nH]3)cc2n1` [Compound 182s], the EC50 was 0.11 µM on hNLRP3 inflammasome and over 30 µM in the assay on THP1-defNLRP3 cells.
For `CC(=O)N(C)CCNc1cc(N)nc2cc(-c3ccn[nH]3)sc12` [Compound 73, N-(2-((5-amino-2-(1H-pyrazol-5-yl)thieno[3,2-b]pyridin-7-yl)amino)ethyl)-N-methylethanamide], the EC50 was 0.18 µM at hNLRP3 inflammasome and over 30 µM with THP1-defNLRP3 cells.
Consider `COC(C)(C)CNc1cc(N)nc2cc(-c3ccn[nH]3)sc12` [Compound 111, N^7-(2′-methoxy-2′-methylpropyl)-2-(1H-pyrazol-5-yl)thieno[3,2-b]pyridine-5,7-diamine], for which the EC50 on hNLRP3 inflammasome was 0.23 µM; with THP1-defNLRP3 cells, over 30 µM.
On to `Nc1cc(NCCN2CCOCC2)c2sc(-c3ccn[nH]3)cc2n1` [Compound 55, N^7-(2-morpholinoethyl)-2-(1H-pyrazol-5-yl)thieno[3,2-b]pyridine-5,7-diamine], for which the EC50 on hNLRP3 inflammasome was 0.44 µM; with THP1-defNLRP3 cells, over 30 µM.
On the same counts, the results for `Nc1cc(NCC2CCOCC2)c2sc(-c3ccn[nH]3)cc2n1` [Compound 120, 2-(1H-pyrazol-5-yl)-N^7-((tetrahydro-2H-pyran-4-yl)methyl)thieno[3,2-b]pyridine-5,7-diamine] are 0.05 µM and over 30 µM.
Regarding `Cc1c(-c2cc[nH]n2)sc2c(NCCN3CCOCC3)cc(N)nc12` [Compound 153], the values for the EC50 at hNLRP3 inflammasome and in the assay with THP1-defNLRP3 cells were 4.29 µM and over 30 µM, respectively.
On the same counts, the results for `CC(=O)N1CCC(Nc2cc(N)nc3cc(-c4ccn[nH]4)sc23)CC1` [Compound 92, 1-(4-((5-amino-2-(1H-pyrazol-5-yl)thieno[3,2-b]pyridin-7-yl)amino)piperidin-1-yl)ethanone] are 1.12 µM and over 30 µM.
Take `CN1CCN(c2cc(N)nc3cc(-c4ccn[nH]4)sc23)CC1` [Compound 161]: the EC50 on hNLRP3 inflammasome is 0.18 µM; with THP1-defNLRP3 cells, over 30 µM.
On the same counts, the results for `C[C@H]1CN(c2cc(N)nc3cc(-c4ccn[nH]4)sc23)C[C@H](C)O1` [Compound 168] are 0.01 µM and over 30 µM.
`Nc1cc(NCc2ccccn2)c2sc(-c3ccn[nH]3)cc2n1` [Compound 59, 2-(1H-pyrazol-5-yl)-N^7-(pyridin-2-ylmethyl)thieno[3,2-b]pyridine-5,7-diamine]: the EC50 was 0.1 µM at hNLRP3 inflammasome and over 30 µM with THP1-defNLRP3 cells.
Consider `C[C@H](O)CNc1cc(N)nc2cc(-c3ccn[nH]3)sc12` [Compound 33], for which the EC50 is 0.26 µM at hNLRP3 inflammasome and over 30 µM in the assay on THP1-defNLRP3 cells.
On the same counts, the results for `Nc1cc(N2CC3CC(C2)N3)c2sc(-c3ccn[nH]3)cc2n1` [Compound 176] are 0.23 µM and over 30 µM.
Turning to `CN1CCN(CCNc2cc(N)nc3cc(-c4ccn[nH]4)sc23)CC1` [Compound 57, N^7-(2-(4-methylpiperazin-1-yl)ethyl)-2-(1H-pyrazol-5-yl)thieno[3,2-b]pyridine-5,7-diamine], the EC50 at hNLRP3 inflammasome was 0.57 µM; in the assay on THP1-defNLRP3 cells it was over 30 µM.
Take `C[C@@H]1CN(c2cc(N)nc3cc(-c4ccn[nH]4)sc23)C[C@H](C)O1` [Compound 169]: the EC50 on hNLRP3 inflammasome is 0.01 µM; in the assay with THP1-defNLRP3 cells, over 30 µM.
For `CN1CCN(CCCNc2cc(N)nc3cc(-c4ccn[nH]4)sc23)CC1` [Compound 54, N^7-(3-(4-methylpiperazin-1-yl)propyl)-2-(1H-pyrazol-5-yl)thieno[3,2-b]pyridine-5,7-diamine], the EC50 was 0.92 µM on hNLRP3 inflammasome and over 30 µM with THP1-defNLRP3 cells.
As for `Nc1cc(NC2CCC(O)CC2)c2sc(-c3ccn[nH]3)cc2n1` (stereo not drawn) [Compound 114, 4-((5-amino-2-(1H-pyrazol-5-yl)thieno[3,2-b]pyridin-7-yl)amino)-1-cyclohexanol], the EC50 is 0.06 µM at hNLRP3 inflammasome and over 30 µM in the assay on THP1-defNLRP3 cells.
Take `Cn1cnc(CNc2cc(N)nc3cc(-c4ccn[nH]4)sc23)c1` [Compound 63, N^7-(1-methyl-1H-imidazol-4-yl)methyl-2-(1H-pyrazol-5-yl)thieno[3,2-b]pyridine-5,7-diamine]: the EC50 on hNLRP3 inflammasome is 0.07 µM; with THP1-defNLRP3 cells, over 30 µM.
Turning to `CN1CCC(Nc2cc(N)nc3cc(-c4ccn[nH]4)sc23)CC1` [Compound 89, N^7-(1-methylpiperidin-4-yl)-2-(1H-pyrazol-5-yl)thieno[3,2-b]pyridine-5,7-diamine], the values for the EC50 on hNLRP3 inflammasome and with THP1-defNLRP3 cells were 0.16 µM and over 30 µM, respectively.
The matching figures for `Nc1cc(N2CC[C@@H](O)C2)c2sc(-c3ccn[nH]3)cc2n1` [Compound 181]: 0.009 µM and over 30 µM.
On the same counts, the results for `CC(C)(CO)CNc1cc(N)nc2cc(-c3ccn[nH]3)sc12` [Compound 115, 3-((5-amino-2-(1H-pyrazol-5-yl)thieno[3,2-b]pyridin-7-yl)amino)-2,2-dimethyl-1-propanol] are 0.04 µM and over 30 µM.
Take `CC1(O)CCN(CCCNc2cc(N)nc3cc(-c4ccn[nH]4)sc23)CC1` [Compound 99, 1-(3-((5-amino-2-(1H-pyrazol-5-yl)thieno[3,2-b]pyridin-7-yl)amino)propyl)-4-methylpiperidine-4-ol]: the values for the EC50 on hNLRP3 inflammasome and with THP1-defNLRP3 cells were 0.54 µM and over 30 µM, respectively.
With `Nc1cc(N2CCNCC2)c2sc(-c3ccn[nH]3)cc2n1` [Compound 175], the EC50 at hNLRP3 inflammasome was 0.34 µM; in the assay on THP1-defNLRP3 cells, over 30 µM.
As to `Nc1cc(NC[C@@H]2CCCO2)c2sc(-c3ccn[nH]3)cc2n1` [Compound 105, (S)-2-(1H-pyrazol-5-yl)-N^7-((tetrahydrofuran-2-yl)methyl)thieno[3,2-b]pyridine-5,7-diamine], the EC50 on hNLRP3 inflammasome was 0.03 µM; in the assay on THP1-defNLRP3 cells it was over 30 µM.
Take `Nc1cc(N2CCN(C=O)CC2)c2sc(-c3ccn[nH]3)cc2n1` [Compound 178]: the results for the EC50 on hNLRP3 inflammasome and in the assay on THP1-defNLRP3 cells were 0.17 µM and over 30 µM, respectively.
On to `CCC(CC)Nc1cc(N)nc2cc(-c3ccn[nH]3)sc12` [Compound 113, N^7-(pent-3-yl)-2-(1H-pyrazol-5-yl)thieno[3,2-b]pyridine-5,7-diamine], for which the EC50 at hNLRP3 inflammasome is 0.03 µM; in the assay on THP1-defNLRP3 cells, over 30 µM.
Consider `CN(CCCNc1cc(N)nc2cc(-c3ccn[nH]3)sc12)C(=O)C1CC1` [Compound 76, N-(3-((5-amino-2-(1H-pyrazol-5-yl)thieno[3,2-b]pyridin-7-yl)amino)propyl)-N-methylcyclopropane formamide], for which the EC50 on hNLRP3 inflammasome was 0.27 µM; in the assay with THP1-defNLRP3 cells, over 30 µM.
